How the values were obtained:
[1] = molecular target: T1, ADRB1 (Homo sapiens, UniProt P08588); experiment: cAMP assay (HTRF), ADRB1; type: cell-based; set-up: expressed in transfected cells; host or cells: HEK-293; conditions: for Emax: 0.5 h, percent efficacy vs maximum response of isoproterenol, read-out: cAMP pathway ADRB1 % Iso max; for EC50 / cAMP pathway ADRB1 EC50: HEK-293 cells, geometric mean (95% confidence limits) of at least two experiments; for EC50: read-out: cAMP pathway ADRB1 EC50; for ADRB1 agonist activity (cAMP pathway), in words: compared to xamoterol (S)
T1 sequence (P08588 whole entry): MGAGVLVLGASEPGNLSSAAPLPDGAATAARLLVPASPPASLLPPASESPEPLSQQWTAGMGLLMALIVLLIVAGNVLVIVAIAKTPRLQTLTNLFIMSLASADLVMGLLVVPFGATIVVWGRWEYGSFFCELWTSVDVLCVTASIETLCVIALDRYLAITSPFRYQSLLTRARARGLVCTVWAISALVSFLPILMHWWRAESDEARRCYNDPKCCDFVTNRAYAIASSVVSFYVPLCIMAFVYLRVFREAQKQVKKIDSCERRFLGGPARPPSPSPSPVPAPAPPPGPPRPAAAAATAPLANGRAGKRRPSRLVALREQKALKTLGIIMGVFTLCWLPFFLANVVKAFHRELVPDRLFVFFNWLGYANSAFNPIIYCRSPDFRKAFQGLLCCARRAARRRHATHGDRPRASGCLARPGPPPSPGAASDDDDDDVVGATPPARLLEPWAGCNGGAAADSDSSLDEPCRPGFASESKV
Protocol: Pharmacological effects of compounds at the cAMP pathway mediated by ADRB1 were evaluated by measuring cAMP production using the homogenous time-resolved fluorescence detection method with HEK-293 cells stably expressing human recombinant ADRB1. Briefly, cells were suspended in HBSS buffer completed with 20 mM HEPES (pH 7.4) and 500 μM IBMX (3-isobutyl-1-methylxanthine) and distributed at a density of 3x10^3 cells/well. […] Following incubation, the cells were lysed and the fluorescence acceptor (D2-labeled cAMP) and fluorescence donor (anti-cAMP antibody labeled with europium cryptate) were added. […] The results were expressed as a percent of the maximum efficacy achieved with isoproterenol. Pharmacological effects of compounds at the cAMP pathway mediated by ADRB2 and ADRB3 were measured as described above using CHO cells stably expressing human recombinant ADRB2 and human SK-N-MC neurotumor cells endogenously expressing ADRB3, respectively.

[2] = molecular target: T1, ADRB1; experiment: β-arrestin assay (PathHunter enzyme fragment complementation); type: cell-based; set-up: host or cells: CHO-K1 (PathHunter)
Protocol: Pharmacological activity of compounds in the β-arrestin pathway mediated by ADRB1 were evaluated using an enzyme fragment complementation method with a β‐galactosidase functional reporter. An engineered CHO-K1-ADRB1 PathHunter cell line (DiscoveRx) was used in the assay. In this cell line, the enzyme acceptor (β‐galactosidase fragment) is fused to β-arrestin and the enzyme donor (β‐galactosidase fragment) is fused to the ADRB1. Thus, activation of the ADRB1 stimulates binding of β-arrestin to the ProLink-tagged ADRB1 and forces complementation of the two enzyme fragments, resulting in the formation of an active β‐galactosidase enzyme. Briefly, CHO-K1-ADRB1 PathHunter cell lines were plated in a total volume of 20 μL cell plating reagent (DiscoveRx, 93-0563R0A) at a density of 2,500 cells/well into 384 well microplates and incubated overnight at 37°C in 5% CO2. […] Chemiluminescent signal was then read with a PerkinElmer Envision (Perkin Elmer, Inc., MA) instrument. The results were expressed as a percent of the maximum efficacy achieved with isoproterenol.

[3] = molecular target: panel of CNS relevant targets, including G protein-coupled receptors and transporters; experiment: Off-target binding screen, panel of CNS relevant targets; conditions: broad range of neurotransmitter transporters, ion channels and other CNS proteins; read-out: off-target affinity Ki
[4] = tested on: LPS-induced TNFα response; experiment: In vivo LPS assay; set-up: species or system C57Bl/6J mice; conditions: 90 min post-LPS
Protocol: ; subcutaneous; […]; intraperitoneal; n = 4) or vehicle (5% DMSO/20%PEG400/water; intraperitoneal; n = 12) 15 min prior to LPS (50 ug/kg; intraperitoneal). A control group was injected with vehicle 15 minutes prior to saline (n = 18). Following injections, mice were single-housed. At 90 min post-LPS/saline, mice were deeply anesthetized with isoflurane and blood was collected from the right ventricle via cardiac puncture (23 g needle) into lithium heparin-containing vials (BD microtainer plasma tubes). Subsequently, brains were collected after perfusion with phosphate-buffered saline. Plasma was separated by centrifugation (11,000 rpm for 3 minutes) within 60 min of collection and stored at -80°C until analysis. The concentration of TNFα in the collected plasma was measured by ELISA (Invitrogen, KMC3012) according to the manufacturer’s instruction. The LPS-induced inflammatory response in the CNS was assessed by measuring mRNA expression for genes related to neuroimmune activation in brain tissue according to the previously reported method. Briefly, total RNA was extracted from hippocampus containing coronal sections using the RNeasy Lipid Tissue Mini Kit (Qiagen), and transcribed into cDNA (Superscript III, Invitrogen). PCR was performed in duplicate using TaqMan gene expression assays, TNFα (Mm00443258_m1), IL1b (Mm00434228_m1), IL6 (Mm00446190_m1), and glyceraldehyde-3-phosphate dehydrogenase (GAPDH; Mm99999915_g1). Fold changes of expression relative to control were determined after normalization to GAPDH. Relative quantification and fold change were calculated by the comparative CT method. Brain uptake of STD-101-D1 was determined in brain tissue. […]

[5] = tested on: LPS-induced TNFα production in primary microglia; experiment: In vitro primary microglia TNFα assay; type: cell-based, Sprague Dawley rat; conditions: Rattus norvegicus, 4 h, read-out: inhibition of LPS-induced TNFα production
Excerpt: Mixed glial cells were obtained from the cerebral cortex of Sprague Dawley rat pups at postnatal days 1–3. Briefly, neonates were euthanized by decapitation and their brain tissues were collected for cortex isolation. The isolated cortex was then trypsinized, triturated, and placed into tissue culture flasks in DMEM supplemented with 10% fetal bovine serum and 1% Penicillin/Streptomycin. After 10 days in vitro, microglia were harvested by gentle shaking of the growth flask, plated in a 96 well plate at a density of 30,000 cells/well, and incubated at 37°C overnight.

[6] = Cardiovascular studies (heart rate, blood pressure); type: in vivo, Sprague-Dawley rats; conditions: anesthetized rats, 3 mg/kg subcutaneous
Protocol: A polyethylene catheter (PE50) filled with heparinized saline was then inserted into the tail artery and connected to the blood pressure transducer system. After ensuring the absence of any air bubbles, 5–10 min of baseline systolic and diastolic blood pressure along with heart rate measurements were recorded using LabChart Pro (AD Instruments, CO).

[7] = Pharmacokinetic study 2, 20-min post-dose collection; type: in vivo, Sprague-Dawley rats; conditions: rat, 10 mg/kg, 20 min post-dose
Excerpt: Two cohorts of Sprague-Dawley rats were used in two independent studies. All animals were fasted overnight before the experiment with free access to water. In study 1, a total of 18 rats were used for a 4 hr time course pharmacokinetic (PK) study. Rats were anesthetized with 3% isoflurane and catheters were implanted into the jugular and/or portal veins for compound administration and/or blood sampling at 1 to 2 days prior to the experiments as previously described. […] Four hours post-dose, rats were deeply anesthetized with isoflurane and blood samples were collected by cardiac puncture. In study 2, a total of 18 rats were used for a 20 min post-dose collection study. […] At 20 min post-dose, rats were deeply anesthetized with isoflurane and blood samples were collected by cardiac puncture. Brains were collected after perfusion with phosphate buffered saline. All plasma samples were immediately separated after collection by centrifugation (11,000 rpm for 3 minutes) and stored at −80°C until analysis. […] Tulobuterol was used as the internal standard. The flow rate was set to 0.45 ml/min. Column temperature was 25°C. […] The injection volume was 20 μl. The mass spectrometer was operated in the positive mode with multiple-reaction monitoring (MRM). […] Mobile phase A consisted of 10 mM ammonium acetate and 0.1% formic acid in LCMS grade water. Mobile phase B consisted of 10 mM ammonium acetate and 0.1% formic acid in LCMS grade acetonitrile:water 90:10% (v/v). […] Five μl of the extracted samples were injected. […] Data acquisition and analysis were performed using the Analyst 1.6.1 software (AB SCIEX, CA).

[8] = cited from earlier work

COc1ccc(CCNCC(O)COc2ccc(O)c(O)c2)cc1OC (stereo not shown) [RO363, reference compound]
decrease in potency vs xamoterol (S), cAMP ADRB1 [1]: approximately 3 fold
increase in efficacy vs xamoterol (S), cAMP ADRB1 [1]: approximately 2 fold
Emax [1]: 104 ± 23.9%
EC50 [1]: 7.9 nM
EC50 ([2]; CHO-K1-ADRB1 PathHunter cells, read-out: β-arrestin pathway ADRB1 EC50): 32.2 nM
β-arrestin pathway ADRB1 % Iso max ([2]; percent efficacy vs maximum response of isoproterenol): 36.5%

O=C(NCCNC[C@H](O)COc1cc(Cl)c(O)cc1F)N1CCOCC1 [STD-101-B4, (S)-N-(2-((3-(5-chloro-2-fluoro-4-hydroxyphenoxy)-2-hydroxypropyl)amino)ethyl)morpholine-4-carboxamide]
cAMP pathway ADRB1 EC50 [1]: no response
ADRB1 agonist activity (cAMP pathway), in words [1]: abolished the agonist activity completely

N#Cc1cc(OC[C@@H](O)CNCCNC(=O)N2CCOCC2)ccc1O [STD-101-B6, (S)-N-(2-((3-(3-cyano-4-hydroxyphenoxy)-2-hydroxypropyl)amino)ethyl)morpholine-4-carboxamide]
Emax [1]: 25.1 ± 4.7%
EC50 [1]: 7.1 nM
ADRB1 agonist activity (cAMP pathway), in words [1]: decrease in both potency and efficacy

N#Cc1cc(OC[C@@H](O)CNCCNC(=O)N2CCOCC2)c(F)cc1O [STD-101-B8, (S)-N-(2-((3-(5-cyano-2-fluoro-4-hydroxyphenoxy)-2-hydroxypropyl)amino)ethyl)morpholine-4-carboxamide]
cAMP pathway ADRB1 EC50 [1]: no response
ADRB1 agonist activity (cAMP pathway), in words [1]: abolished the agonist activity completely

O=C(NCCNC[C@H](O)COc1cccc2c(O)cccc12)N1CCOCC1 [STD-101-E, (S)-N-(2-((2-hydroxy-3-((5-hydroxynaphthalen-1-yl)oxy)propyl)amino)ethyl)morpholine-4-carboxamide]
cAMP pathway ADRB1 EC50 [1]: no response
ADRB1 agonist activity (cAMP pathway), in words [1]: inactive

O=C(NCCNC[C@H](O)COc1ccc(O)cc1)N1CCOCC1 [Xamoterol (S)]
Ki [3]: > 10000 nM
LPS-induced systemic (plasma) TNFα response ([4]; 3 mg/kg pre-treatment 15 min prior to LPS): markedly inhibited
inhibition at 10 µM [5]: ~55%

O=C(NCCNCC(O)COc1ccc(O)cc1)N1CCOCC1 (stereo not shown) [Xamoterol, reference compound]
decrease in blood pressure [6]: 9%
increase in heart rate [6]: 4%
plasma concentration after PO as percent of that after IP [7]: 0.2%
plasma concentration after PO as percent of that after IV [7]: 0.7%
oral bioavailability in humans [8]: 5%
CNS inflammatory markers after LPS ([4]; 3 mg/kg subcutaneous pre-treatment): Significant effects of xamoterol were not observed

CC(C)NCC(O)c1ccc(O)c(O)c1 (stereo not shown) [isoproterenol]
inhibition at 10 µM [5]: ~80%
